# Patent publication US12728099B2, “Formulation to deliver lipophilic active ingredients” (priority 2020, dated 2026)
# Like-named read-outs stand apart in the source and are kept apart here.
# How the values were obtained:
# [1] = Dissolution rate in 1% aqueous sodium cholate solution (HPLC); assay type: physicochemical; settings: 1% w/v sodium cholate, total 30 μg/mL
# Method: Chromatogram recording was performed at 210 nm.
# [2] = Particle size by light scattering; assay type: physicochemical
# Method: The nanostructured PEA suspension obtained according to Example 1 was analyzed by light scattering to assess the size of the nanoparticles.
# [3] = Morphology by scanning electron / optical microscopy; assay type: physicochemical; settings: SEM or optical microscope
# Method: Morphologically, scanning electron microscopy (SEM) analyses of both forms were performed.
# [4] = cited from earlier work
# [5] = Solubility in different dissolution media (HPLC); settings: 25 °C, thermodynamic from solid
smiles,measurement,setting,value
"CCCCCCCCCCCCCCCC(=O)NCCO [Raw PEA, Palmitoylethanolamide]",Dissolved PEA (dissolution rate),[1]; 30 min,3.31 ± 2.30 µg/mL
same,Dissolved PEA (dissolution rate),[1]; 1 hour,4.56 ± 1.02 µg/mL
same,Dissolved PEA (dissolution rate),[1]; 2 hours,6.15 ± 1.22 µg/mL
same,Dissolved PEA (dissolution rate),[1]; 4 hours,8.61 ± 0.68 µg/mL
same,Dissolved PEA (dissolution rate),[1]; 6 hours,9.31 ± 0.71 µg/mL
same,Size (nm ± SD),[2],Macro and microscopic flakes
same,Morphology / obtainment of nanostructures,[3],irregular macroscopic agglomerates (a few tens of microns)
same,Solubility,"[4]; methanol, ethanol, and isopropyl alcohol",poorly soluble
same,Solubility,"[4]; water, oils, and most common organic solvents",practically insoluble
same,solubility at 24 h,"[5]; demineralized water, water",< 0.1 µg/mL
same,solubility at 24 h,"[5]; phosphate buffer, pH 7.4, aqueous buffer",0.64 ± 0.05 µg/mL
same,solubility at 24 h,"[5]; simulated intestinal fluid, pH 6.8, fassgf or other biorelevant",0.22 ± 0.03 µg/mL
same,solubility at 24 h,"[5]; simulated pulmonary fluid, pH 7.4, fassgf or other biorelevant",0.8 ± 0.12 µg/mL
